Data as given in ChEMBL document CHEMBL4507319 (2021).

Tests used:
[1] = target: Muscarinic acetylcholine receptor M4 (Homo sapiens) (UniProt P08173); conditions: Compound concentration 10.0 uM
[2] = target: T1, Tyrosine-protein kinase receptor TYRO3 (Homo sapiens) (UniProt Q06418); conditions: Compound concentration 1000.0 nM
T1 sequence (whole entry): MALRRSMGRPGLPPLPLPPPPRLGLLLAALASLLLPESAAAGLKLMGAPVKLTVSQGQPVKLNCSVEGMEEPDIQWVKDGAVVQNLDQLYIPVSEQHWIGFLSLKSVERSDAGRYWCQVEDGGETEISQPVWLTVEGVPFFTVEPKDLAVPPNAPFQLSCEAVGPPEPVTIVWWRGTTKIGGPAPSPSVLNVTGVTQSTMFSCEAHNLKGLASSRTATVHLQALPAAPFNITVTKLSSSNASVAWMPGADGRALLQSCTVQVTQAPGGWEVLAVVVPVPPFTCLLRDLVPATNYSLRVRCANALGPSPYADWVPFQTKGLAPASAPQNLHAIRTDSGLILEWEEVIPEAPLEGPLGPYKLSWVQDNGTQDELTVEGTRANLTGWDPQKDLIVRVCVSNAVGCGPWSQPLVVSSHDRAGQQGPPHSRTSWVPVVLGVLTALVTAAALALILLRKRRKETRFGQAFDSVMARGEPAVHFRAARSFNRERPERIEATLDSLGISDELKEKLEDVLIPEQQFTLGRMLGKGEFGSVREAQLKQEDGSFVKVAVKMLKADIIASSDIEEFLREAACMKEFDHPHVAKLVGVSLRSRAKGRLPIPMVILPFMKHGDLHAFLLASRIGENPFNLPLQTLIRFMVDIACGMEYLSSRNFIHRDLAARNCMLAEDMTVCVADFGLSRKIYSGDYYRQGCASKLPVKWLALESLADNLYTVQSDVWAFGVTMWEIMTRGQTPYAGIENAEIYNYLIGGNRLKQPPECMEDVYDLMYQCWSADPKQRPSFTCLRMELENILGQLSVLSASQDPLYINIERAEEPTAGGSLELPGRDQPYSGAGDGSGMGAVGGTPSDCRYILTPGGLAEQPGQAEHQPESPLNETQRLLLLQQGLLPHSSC

[3] = target: T2, Ephrin type-B receptor 1 (Homo sapiens) (UniProt P54762); conditions: Compound concentration 1000.0 nM
T2 sequence (whole entry): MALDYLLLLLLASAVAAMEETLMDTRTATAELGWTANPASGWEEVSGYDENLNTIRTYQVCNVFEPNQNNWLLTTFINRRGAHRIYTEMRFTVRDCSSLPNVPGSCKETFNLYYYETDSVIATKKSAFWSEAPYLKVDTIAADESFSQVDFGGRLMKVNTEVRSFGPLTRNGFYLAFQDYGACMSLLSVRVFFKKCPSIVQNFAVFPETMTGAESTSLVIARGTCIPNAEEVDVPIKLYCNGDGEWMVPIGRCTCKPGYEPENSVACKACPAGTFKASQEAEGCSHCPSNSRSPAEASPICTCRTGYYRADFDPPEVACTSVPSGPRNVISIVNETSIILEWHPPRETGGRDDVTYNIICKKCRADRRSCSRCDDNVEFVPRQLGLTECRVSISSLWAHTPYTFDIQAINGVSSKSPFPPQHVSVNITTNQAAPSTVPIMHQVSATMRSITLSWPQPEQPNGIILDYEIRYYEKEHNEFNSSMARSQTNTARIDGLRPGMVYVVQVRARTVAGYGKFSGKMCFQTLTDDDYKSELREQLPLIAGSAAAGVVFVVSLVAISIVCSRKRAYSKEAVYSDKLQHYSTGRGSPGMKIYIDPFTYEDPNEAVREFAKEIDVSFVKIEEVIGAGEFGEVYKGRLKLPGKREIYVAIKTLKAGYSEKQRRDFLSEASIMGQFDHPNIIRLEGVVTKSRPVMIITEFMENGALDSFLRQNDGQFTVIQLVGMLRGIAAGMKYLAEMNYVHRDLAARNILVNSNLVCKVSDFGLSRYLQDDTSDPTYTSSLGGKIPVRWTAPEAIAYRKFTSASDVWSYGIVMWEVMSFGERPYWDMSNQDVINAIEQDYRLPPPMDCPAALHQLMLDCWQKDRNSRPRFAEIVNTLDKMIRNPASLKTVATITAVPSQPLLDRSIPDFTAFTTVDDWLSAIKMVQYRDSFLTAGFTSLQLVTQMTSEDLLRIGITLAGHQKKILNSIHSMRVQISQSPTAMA

[4] = test system: Phosphatidylinositol 4,5-bisphosphate 3-kinase catalytic subunit alpha isoform (Homo sapiens), P42336 [E545A]; conditions: Compound concentration 1000.0 nM
Chain of Phosphatidylinositol 4,5-bisphosphate 3-kinase catalytic subunit alpha isoform (Homo sapiens), P42336 [E545A] (P42336 whole entry E545A, canonical isoform): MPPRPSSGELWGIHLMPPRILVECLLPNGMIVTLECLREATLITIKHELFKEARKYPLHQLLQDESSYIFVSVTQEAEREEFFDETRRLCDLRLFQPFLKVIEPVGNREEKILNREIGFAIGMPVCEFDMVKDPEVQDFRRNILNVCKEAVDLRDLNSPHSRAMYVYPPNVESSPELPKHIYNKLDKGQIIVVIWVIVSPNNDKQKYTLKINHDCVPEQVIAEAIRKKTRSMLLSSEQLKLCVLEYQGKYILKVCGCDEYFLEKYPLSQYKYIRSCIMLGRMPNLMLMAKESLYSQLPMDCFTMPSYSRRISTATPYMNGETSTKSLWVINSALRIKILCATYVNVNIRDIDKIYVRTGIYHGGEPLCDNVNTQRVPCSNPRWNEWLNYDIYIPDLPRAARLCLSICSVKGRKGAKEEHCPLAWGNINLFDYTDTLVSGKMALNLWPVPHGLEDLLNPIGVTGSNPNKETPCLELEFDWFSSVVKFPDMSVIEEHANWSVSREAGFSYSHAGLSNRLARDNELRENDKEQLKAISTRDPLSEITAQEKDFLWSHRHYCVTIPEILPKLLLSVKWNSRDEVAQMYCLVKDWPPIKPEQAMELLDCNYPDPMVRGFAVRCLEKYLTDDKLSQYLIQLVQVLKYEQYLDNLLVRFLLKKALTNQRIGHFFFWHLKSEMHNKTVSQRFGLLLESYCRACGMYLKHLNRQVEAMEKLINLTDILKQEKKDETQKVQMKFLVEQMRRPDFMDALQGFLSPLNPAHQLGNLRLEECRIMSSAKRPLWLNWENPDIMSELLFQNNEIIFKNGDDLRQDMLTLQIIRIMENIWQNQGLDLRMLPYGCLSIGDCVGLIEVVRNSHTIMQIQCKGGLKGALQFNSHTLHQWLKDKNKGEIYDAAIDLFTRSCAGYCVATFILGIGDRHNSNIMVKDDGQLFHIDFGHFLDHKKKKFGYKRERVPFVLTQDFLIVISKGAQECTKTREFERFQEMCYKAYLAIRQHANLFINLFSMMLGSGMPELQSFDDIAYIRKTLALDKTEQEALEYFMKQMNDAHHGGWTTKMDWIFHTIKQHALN

[5] = test system: eIF-2-alpha kinase GCN2 (Homo sapiens), Q9P2K8 [S808G]; conditions: Compound concentration 1000.0 nM
Chain of eIF-2-alpha kinase GCN2 (Homo sapiens), Q9P2K8 [S808G] (Q9P2K8 whole entry S808G): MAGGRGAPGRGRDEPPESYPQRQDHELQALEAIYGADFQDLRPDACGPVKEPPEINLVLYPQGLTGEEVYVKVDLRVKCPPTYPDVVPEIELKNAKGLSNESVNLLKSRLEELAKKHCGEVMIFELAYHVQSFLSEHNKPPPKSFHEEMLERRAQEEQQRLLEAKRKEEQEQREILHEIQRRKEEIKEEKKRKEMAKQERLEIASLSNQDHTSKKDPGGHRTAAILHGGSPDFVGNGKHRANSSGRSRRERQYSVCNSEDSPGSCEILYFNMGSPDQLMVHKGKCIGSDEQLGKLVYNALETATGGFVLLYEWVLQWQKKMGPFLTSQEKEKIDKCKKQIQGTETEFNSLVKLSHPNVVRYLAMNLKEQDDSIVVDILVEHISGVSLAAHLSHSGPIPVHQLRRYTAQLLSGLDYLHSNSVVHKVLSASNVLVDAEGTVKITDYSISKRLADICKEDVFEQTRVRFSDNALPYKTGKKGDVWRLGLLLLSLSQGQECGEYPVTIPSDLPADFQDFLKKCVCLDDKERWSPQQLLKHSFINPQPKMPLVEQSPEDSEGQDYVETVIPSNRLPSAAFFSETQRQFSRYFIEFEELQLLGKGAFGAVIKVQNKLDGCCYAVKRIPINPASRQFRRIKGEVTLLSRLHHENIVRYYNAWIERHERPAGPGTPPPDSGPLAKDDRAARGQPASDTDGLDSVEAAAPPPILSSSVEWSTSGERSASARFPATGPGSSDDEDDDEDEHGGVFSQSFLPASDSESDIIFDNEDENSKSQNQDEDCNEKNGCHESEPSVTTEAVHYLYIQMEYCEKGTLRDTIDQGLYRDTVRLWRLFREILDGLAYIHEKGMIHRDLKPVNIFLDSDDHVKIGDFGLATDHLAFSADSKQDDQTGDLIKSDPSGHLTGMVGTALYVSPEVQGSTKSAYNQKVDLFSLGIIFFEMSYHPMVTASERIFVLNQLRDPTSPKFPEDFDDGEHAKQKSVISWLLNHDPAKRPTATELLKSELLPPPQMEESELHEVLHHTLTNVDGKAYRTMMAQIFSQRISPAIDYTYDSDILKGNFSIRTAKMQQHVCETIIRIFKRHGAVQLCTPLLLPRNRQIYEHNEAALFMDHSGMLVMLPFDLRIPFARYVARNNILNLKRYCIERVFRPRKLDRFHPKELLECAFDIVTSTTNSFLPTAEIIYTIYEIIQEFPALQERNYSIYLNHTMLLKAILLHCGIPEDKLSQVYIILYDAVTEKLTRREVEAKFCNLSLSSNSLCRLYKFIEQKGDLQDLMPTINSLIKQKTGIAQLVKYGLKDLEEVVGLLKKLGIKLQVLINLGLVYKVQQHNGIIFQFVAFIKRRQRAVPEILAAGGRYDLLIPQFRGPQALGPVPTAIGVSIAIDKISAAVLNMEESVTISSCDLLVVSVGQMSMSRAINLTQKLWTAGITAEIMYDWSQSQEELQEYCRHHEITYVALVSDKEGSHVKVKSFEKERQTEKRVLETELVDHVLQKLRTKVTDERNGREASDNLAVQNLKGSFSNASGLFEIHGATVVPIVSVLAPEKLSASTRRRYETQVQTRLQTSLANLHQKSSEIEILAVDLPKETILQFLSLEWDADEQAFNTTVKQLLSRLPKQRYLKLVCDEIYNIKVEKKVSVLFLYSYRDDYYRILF

[6] = target: Alpha-1D adrenergic receptor (Homo sapiens) (UniProt P25100); conditions: Compound concentration 10.0 uM
Chain of Alpha-1D adrenergic receptor (Homo sapiens) (P25100 whole entry): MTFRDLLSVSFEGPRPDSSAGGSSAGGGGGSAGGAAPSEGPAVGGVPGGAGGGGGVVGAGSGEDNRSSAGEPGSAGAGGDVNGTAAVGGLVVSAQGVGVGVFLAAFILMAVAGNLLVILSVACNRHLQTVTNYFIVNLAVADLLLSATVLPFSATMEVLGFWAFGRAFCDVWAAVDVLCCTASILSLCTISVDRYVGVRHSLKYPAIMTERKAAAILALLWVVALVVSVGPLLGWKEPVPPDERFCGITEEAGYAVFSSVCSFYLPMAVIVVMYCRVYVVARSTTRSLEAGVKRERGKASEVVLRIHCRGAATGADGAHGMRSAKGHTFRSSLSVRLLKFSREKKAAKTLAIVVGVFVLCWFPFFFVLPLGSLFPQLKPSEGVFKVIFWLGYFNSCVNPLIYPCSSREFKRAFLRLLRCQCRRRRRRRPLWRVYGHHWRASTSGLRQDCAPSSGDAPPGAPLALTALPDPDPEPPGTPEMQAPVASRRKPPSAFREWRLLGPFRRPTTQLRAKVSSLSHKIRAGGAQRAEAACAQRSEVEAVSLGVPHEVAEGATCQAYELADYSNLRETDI

[7] = target: Death-associated protein kinase 1 (Homo sapiens) (UniProt P53355); conditions: Compound concentration 1000.0 nM
Chain of Death-associated protein kinase 1 (Homo sapiens) (P53355 whole entry, looked up): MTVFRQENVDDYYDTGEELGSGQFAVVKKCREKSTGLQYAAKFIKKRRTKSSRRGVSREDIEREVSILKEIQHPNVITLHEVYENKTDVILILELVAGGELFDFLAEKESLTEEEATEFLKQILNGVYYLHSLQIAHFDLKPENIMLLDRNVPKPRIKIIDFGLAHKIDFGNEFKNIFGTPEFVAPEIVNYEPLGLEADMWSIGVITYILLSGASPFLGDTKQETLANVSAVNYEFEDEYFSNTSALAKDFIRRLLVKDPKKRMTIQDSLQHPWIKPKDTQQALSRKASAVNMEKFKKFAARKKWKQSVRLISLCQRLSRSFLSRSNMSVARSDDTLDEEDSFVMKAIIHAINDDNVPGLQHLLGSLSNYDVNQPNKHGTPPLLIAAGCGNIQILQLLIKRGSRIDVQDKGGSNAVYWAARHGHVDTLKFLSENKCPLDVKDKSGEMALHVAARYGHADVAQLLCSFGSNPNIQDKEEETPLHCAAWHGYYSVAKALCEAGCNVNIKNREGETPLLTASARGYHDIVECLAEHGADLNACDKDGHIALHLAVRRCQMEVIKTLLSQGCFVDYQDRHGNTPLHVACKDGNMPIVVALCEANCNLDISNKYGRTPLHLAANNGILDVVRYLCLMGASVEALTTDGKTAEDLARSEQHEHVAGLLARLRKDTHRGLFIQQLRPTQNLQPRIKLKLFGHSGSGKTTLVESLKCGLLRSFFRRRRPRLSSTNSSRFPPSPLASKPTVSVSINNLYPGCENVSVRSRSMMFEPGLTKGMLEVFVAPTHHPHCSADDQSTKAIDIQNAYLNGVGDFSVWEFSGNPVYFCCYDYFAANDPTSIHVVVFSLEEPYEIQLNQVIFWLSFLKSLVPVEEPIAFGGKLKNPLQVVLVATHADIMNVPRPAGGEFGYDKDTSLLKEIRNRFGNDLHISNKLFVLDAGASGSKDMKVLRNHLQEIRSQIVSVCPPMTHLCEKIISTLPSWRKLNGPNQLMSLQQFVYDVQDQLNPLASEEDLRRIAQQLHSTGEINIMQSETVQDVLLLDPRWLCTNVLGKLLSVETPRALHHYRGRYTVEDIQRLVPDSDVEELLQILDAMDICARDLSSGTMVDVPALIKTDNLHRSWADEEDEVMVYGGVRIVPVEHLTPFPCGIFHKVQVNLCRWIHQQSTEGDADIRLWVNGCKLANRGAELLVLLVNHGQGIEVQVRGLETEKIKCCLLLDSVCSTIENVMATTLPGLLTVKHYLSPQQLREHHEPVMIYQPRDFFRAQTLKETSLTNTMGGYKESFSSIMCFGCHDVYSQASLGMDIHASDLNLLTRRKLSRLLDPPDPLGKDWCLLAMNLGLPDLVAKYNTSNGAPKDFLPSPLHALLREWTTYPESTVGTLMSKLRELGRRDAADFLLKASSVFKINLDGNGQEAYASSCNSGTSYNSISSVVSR

[8] = target: Cyclin-dependent kinase 4 (Homo sapiens) (UniProt P11802); conditions: Compound concentration 1000.0 nM
Chain of Cyclin-dependent kinase 4 (Homo sapiens) (P11802 whole entry): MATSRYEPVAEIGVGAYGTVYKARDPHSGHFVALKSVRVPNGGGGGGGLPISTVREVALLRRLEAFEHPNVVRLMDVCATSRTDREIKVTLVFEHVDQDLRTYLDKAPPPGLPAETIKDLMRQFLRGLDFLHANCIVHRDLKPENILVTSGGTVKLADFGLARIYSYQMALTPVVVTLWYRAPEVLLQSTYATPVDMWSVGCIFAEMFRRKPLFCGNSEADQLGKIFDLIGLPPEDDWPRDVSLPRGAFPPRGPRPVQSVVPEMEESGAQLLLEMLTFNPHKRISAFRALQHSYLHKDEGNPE

| SMILES | inhibition [1] [%] | residual activity [2] [%] | residual activity [3] [%] | residual activity [4] [%] | residual activity [5] [%] | inhibition [6] [%] | residual activity [7] [%] | residual activity [8] [%] |
| --- | --- | --- | --- | --- | --- | --- | --- | --- |
| CCc1ccccc1C(=O)Nc1n[nH]c2c(C)c(F)c(C3C(C#N)=C(C)N(C)C(C)=C3C#N)cc12 [BAY-3827] | 8.27 | 100 | 100 | 100 | 43 | 2.75 | 100 | 75 |
| CC1=C(C#N)C(c2ccc3c(c2)c(NC(=O)c2ccccc2C)nn3C)C(C#N)=C(C)N1 [BAY-974] | 6.87 | 100 | 99 | 71 | 61 | 4.71 | 89 | 79 |
